Test results: PMC3191538 (Bioorganic & medicinal chemistry, 2011)
Several values for one entry are separate records, joined by “and”; a condition that tells them apart may be missing. Equal values may be shown once.

What was measured:
[1] = system: Norwalk virus 3C protease; settings: unpublished data; cited from earlier work
HG23 cells = test: Cytotoxic effects on HG23 cells; format: cell-based; settings: median toxic dose at 48 hr of treatment, 0-320 μM
[2] = system: Norwalk virus (NV) replicon in HG23 cells; test: Antiviral effect in NV replicon-harboring cells; format: cell-based; settings: discussion of Table 1

SMILES	inhibition of Norwalk virus 3C protease (in words) [1]	TD50 (HG23 cells)	anti-norovirus activity (in words) [2]
O=S1(=O)NCCN1Cc1cccc(Oc2ccccc2)c1 [Compound 2a, 2-(3-Phenoxybenzyl)-1,2,5-thiadiazolidine 1,1-dioxide]	does not arise from the inhibition of Norwalk virus 3C protease	50 ± 9.2 µM	
O=S1(=O)NCCN1CC1CCCN(Cc2ccccc2)C1 (stereo not shown) [Compound 12, 1-Benzyl-3-[(1,1-dioxido-1,2,5-thiadiazolidin-2-yl)methyl]piperidine]			devoid of anti-norovirus activity
NC(=O)CN1CCN(Cc2cccc(Oc3ccccc3)c2)S1(=O)=O [Compound 13m, 2-[5-(3-Phenoxybenzyl)-1,1-dioxido-1,2,5-thiadiazolidin-2-yl]acetamide]			lacked activity
O=C(O)CN1CCN(Cc2cccc(Oc3ccccc3)c2)S1(=O)=O [Compound 14a, [5-(3-Phenoxybenzyl)-1,1-dioxido-1,2,5-thiadiazolidin-2-yl]acetic acid]			active
O=C(O)CCCCN1CCN(Cc2cccc(Oc3ccccc3)c2)S1(=O)=O [Compound 14d, 5-[5-(3-Phenoxybenzyl)-1,1-dioxido-1,2,5-thiadiazolidin-2-yl]pentanoic acid]			active
O=S1(=O)N(CCN2CCOCC2)CCN1Cc1cccc(Oc2ccccc2)c1 [Compound 17a, 4-{2-[5-(3-Phenoxybenzyl)-1,1-dioxido-1,2,5-thiadiazolidin-2-yl]ethyl}morpholine]		51 ± 3.2 µM and 49 ± 7.7 µM	
